# Patent US11026441B2, “Avocado flesh and/or skin extract rich in polyphenols and cosmetic, dermatological and nutraceutical compositions comprising same” (Laboratoires Expanscience, priority 2010, dated 2021)
# Experiments:
# Type in all cases: cell-based
# [1] = system: PGE2 production by human keratinocytes (NCTC-2544 cell line); test: Production of PGE2 by PMA-stimulated keratinocytes (ELISA); details: 10^−6 M indomethacin, 0.1 μg/ml PMA
# [2] = system: histamine release by mastocytes; test: Release of histamine by mastocytes stimulated with substance P (ELISA); details: 10 nM calcium; 10 μM substance P
# Description: The mastocytes were then stimulated with 10 μM substance P for 15 minutes. At the end of incubation, the release of histamine was quantified by ELISA.
# (§1) The results were analyzed statistically by a Student's t-test.
# [3] = system: MMP9 gene expression in normal human keratinocytes; test: Gene expression of MMP9 in keratinocytes, real-time RT-PCR; details: 5 ng/ml TGFβ1; 48 hours
# Description: (§2) Normal human keratinocytes were incubated for 48 hours in the presence of the avocado extract concentrated in polyphenols (AV) at concentrations of 0.001% and 0.005% (w/v of active material) or 5 ng/ml TGFβ1 (reference).
# (§3) The gene expression of MMP9 and laminin-5 (subunit γ2) was studied by real-time RT-PCR.
# (§4) The results were analyzed statistically by a one-factor ANOVA followed by a Dunnett's test: ns (not significant) p>0.05; *p<0.05; ***p<0.001.
# [4] = system: laminin-5 (subunit γ2) gene expression in normal human keratinocytes; test: Gene expression of laminin-5 (subunit γ2) in keratinocytes, real-time RT-PCR; details: 5 ng/ml TGFβ1; 48 hours
# Description: as §2, §3, §4
# [5] = system: Normal human epidermal melanocytes; test: Melanin production by melanocytes stimulated by NDP-MSH; details: 0.25 mM kojic acid; 10^−7 M NDP-MSH; 240 hours
# Description: After 240 hours of incubation, melanin was extracted from the cells and quantified by spectrophotometry. The results were analyzed statistically by a Student's t-test.
# [6] = system: IL8 production by human keratinocytes (NCTC-2544 cell line); test: Production of IL8 by PMA-stimulated keratinocytes (ELISA); details: 10^−7 M dexamethasone, 0.1 μg/ml PMA
# Description: The cells were then treated with 0.1 μg/ml phorbol myristate acetate (PMA) for 24 hours, always in the presence of AV or the references.
# At the end of the treatment, the quantities of interleukin 8 (IL8) and prostaglandin E2 (PGE2) secreted were measured by ELISA in the culture supernatants.
# as §1
compound,measurement,setting,value
"COc1ccc2c(c1)c(CC(=O)O)c(C)n2C(=O)c1ccc(Cl)cc1 [Indomethacin, indomethacin]",PGE2,[1],0.039 ± 0.0 ng/mL
same,inhibition at 1 µM,"[1]; Homo sapiens, NCTC-2544",100%
"[Ca+2] [Calcium, calcium]",Histamine,[2],21.8 ± 1.0 ng/mL
same,Inhibition of histamine release,[2],−85% p < 0.01
TGFβ1: 5 ng/ml TGFβ1 (reference) in keratinocyte migration marker test,MMP9 gene expression (relative quantity),[3],19.84
same,"MMP9 gene expression, change versus control cells",[3],+1884% ***
same,Laminin-5 gene expression (relative quantity),[4],11.33
same,"Laminin-5 gene expression, change versus control cells",[4],+1033% ***
"O=c1cc(CO)occ1O [Kojic acid, kojic acid]",Change in melanin versus stimulated control,[5],−32% p < 0.001
"C[C@@H]1C[C@H]2[C@@H]3CCC4=CC(=O)C=C[C@]4(C)[C@@]3(F)[C@@H](O)C[C@]2(C)[C@@]1(O)C(=O)CO [Dexamethasone, dexamethasone]",IL8,[6],7.4 ± 0.8 ng/mL
same,inhibition at 0.1 µM,"[6]; Homo sapiens, NCTC-2544",85%
